# Results taken from US20220096431A1, “PHARMACEUTICAL COMPOSITION AND METHOD FOR PREVENTING, TREATING AND DIAGNOSING A NEURODEGENERATIVE DISEASE” (BUDDHIST TZU CHI MEDICAL FOUNDATION, priority 2020, published 2022).
# Entries after “also recorded” stand apart in the source; their conditions may differ.
# Legend:
# [1] = system: SH-SY5Y; assay: Aβ1-42 poisoning experiment in SH-SY5Y cells (MTT); type: cell-based, human; conditions: n-butylidenephthalide 100 μM, vitamin C 200 μM, alone or in combination, Aβ1-42 1 μM
# From the text: Then, the cell viability is detected by a cell survival test using (3-(4,5-dimethylthiazol-2-yl)-2,5-diphenyltetrazolium bromide (MTT) assay.
# [2] = system: C6-C99 cells; assay: Flow cytometry of C6-C99 cells (cumate-induced fluorescence); type: cell-based; conditions: 100 μM n-BP
# Experimental: Red peak, fluorescence of C6-C99 cells without cumate activation (background). Green peak, with cumate. Blue peak, with n-BP.
# (§1) Then, C6-C99 cells were used to explore the effect of 100 μM n-butylidenephthalide (n-BP) on the expressions of miR-29b-2-5p, PSEN1, and Aβ1-42. […] Also shown in FIGS. 4G to 4I are the results of using miR-29b-2-5p inhibitor to evaluate whether n-BP inhibited PSEN1 and Aβ1-42 expression through miR-29b-2-5p. Specifically, miR-29b-2-5p inhibitor was transfected into C6-C99 cells and examined the inhibitory effect of n-BP treatment on PSEN1 and Aβ1-42 expression. It was observed that the addition of the miR-29b-2-5p inhibitor to C6-C99 cells abolished the 100 μM n-BP induced decrease in PSEN1 and Aβ1-42 expression.
# [3] = system: 3xTg AD mice; assay: Immunostaining with Aβ1-42 antibody of brain sections; type: in vivo
# Experimental: FIGS. 8D and 8E show the result of immunostaining with Aβ1-42 antibody to detect amyloid deposition in the brain. Brain sections were selected at −2.2 mm posterior to bregma. Red dot indicated Aβ1-42 plaque accumulation. n=5 for B6 mice and 3xTg-60 mg/kg n-BP group. n=4 for 3xTg vehicle group. n=6 for […]. Scale bars represent 1 mm. *p-value<0.05, **p-value<0.01 (Student's t-test).
# It was observed that AP accumulation was absent in the hippocampus of B6 mice but present in that of 3xTg AD mice. […] Specifically, immunostaining was used to detect Aβ1-42 accumulation in the hippocampus of 14-month-old 3xTg AD mice.
# [4] = system: NICD, Aβ1-42 and PSEN1 in iPSC-derived human neurons; assay: Western blot of NICD, Aβ1-42 and PSEN1 in iPSC-derived human neurons; type: cell-based; conditions: 100 μM n-BP, 48 h
# Experimental: Because the Notch intracellular domain (NICD) is most relevant to the development of AD drugs, western blot analysis was conducted to explore the effect of 100 μM n-BP-induced inhibition of Notch cleavage in iPSC-derived human neurons and on the expressions of miR-29b-2-5p and PSEN1. […] The change in the expressions of miR-29b-2-5p, PSEN1, and Aβ1-42 was therefore consistent with those observed in n-BP-treated Ts-21 iPSCs.
# [5] = system: miR-29b-2-5p expression in C6-C99 cells; assay: RT-qPCR of miR-29b-2-5p/miR-9-5p in C6-C99 cells; type: cell-based; conditions: 100 μM n-BP
# Experimental: as §1
# [6] = system: Aβ1-42; assay: ELISA of Aβ1-42 in the medium of Ts-21 iPSCs; type: cell-based, human; conditions: 100 μM n-BP
# [7] = system: Ts-21 iPSCs (neurons with Alzheimer's disease symptoms); assay: Gene microarray analysis of n-BP-treated Ts-21 iPSCs; type: cell-based, human
# From the text: To examine the mechanism by which n-BP regulated miR expression, n-BP-treated Ts-21 iPSCs were subjected to gene microarray analysis. […] The 4 predicted binding energy between lnc-CYP3A43-2 and miR-29b-2-5p are the lowest (−11.49 Kcal/mol) among these four lncRNA and the predicted target sequence between lnc-CYP3A43-2 and miR-29b-2-5p are shown in FIG. 6G.
# For example, ATP6V0D2 and IST1 are autophagy-related genes, and the expression levels thereof increase by 30.07 times and 15.72 times, respectively, after administration of n-butylidenephthalide, while genes related to inflammation including NT5E, STAP1, DEC1, ADAMDEC1 have their expression levels reduced by 12.6, 12.79, 28.35 and 43.55 times, respectively.
# [8] = system: miR-29b-2-5p and PSEN1 expression in Ts-21 iPSCs; assay: Real-time PCR of miR-29b-2-5p and PSEN1 in Ts-21 iPSCs; type: cell-based, human; conditions: 100 μM n-BP
# From the text: FIGS. 6A and 6B show the RT-qPCR analysis result of expression levels of miR-29b-2-5p/miR-9-5p and PSEN1/β-actin with or without […] n-BP. n=3 for each group.
# [9] = neurons with Alzheimer's disease symptoms, autophagy-related gene
# [10] = neurons with Alzheimer's disease symptoms, inflammation-related gene
structure (smiles),measurement,setting,value
"CCCC=C1OC(=O)c2ccccc21 [n-BP, n-butylidenephthalide]","Cell survival, protection against Aβ1-42 damage",[1],has an effect on increasing cell survival
same,Cumate expression / fluorescence of C6-C99 cells,[2],did not affect; also recorded: does not affect the fluorescence of C6-C99
same,Aβ accumulation in the hippocampus (Aβ1-42 antibody),"[3]; 3xTg AD mice, either dose of n-BP (60 or 120 mg/kg)",significantly decreased
same,Aβ1-42 accumulation in the brain (immunostaining),"[3]; 14-month-old 3xTg AD mice, 120 mg n-BP/kg, vs vehicle",significantly reduced
same,Aβ1-42 protein expression,[4],35.02%±24.39%
same,Expression of proteins in NICD,[4],no change
same,PSEN1 protein expression,[4],65.94%±4.52%
same,miR-29b-2-5p expression,[5],358.95%±24.74%
same,"Aβ1-42 expression (ELISA, medium)",[6],decrease
same,Multiple of change,"[7]; gene A 21 P0014752, neurons with Alzheimer's disease symptoms",17.29
same,Multiple of change,"[7]; gene ADAMDECI, neurons with Alzheimer's disease symptoms",−43.55
same,Multiple of change,"[7]; gene ATP6VOD2, neurons with Alzheimer's disease symptoms",30.07
same,Multiple of change,"[7]; gene BG182298, neurons with Alzheimer's disease symptoms",−11.75
same,Multiple of change,"[7]; gene CTLA4, neurons with Alzheimer's disease symptoms",29.78
same,Multiple of change,"[7]; gene DECI, neurons with Alzheimer's disease symptoms",−28.35
same,Multiple of change,"[7]; gene EN ST00000442006, neurons with Alzheimer's disease symptoms",−26.17
same,Multiple of change,"[7]; gene EN ST00000552046, neurons with Alzheimer's disease symptoms",−38.01
same,Multiple of change,"[7]; gene EN ST00000589476, neurons with Alzheimer's disease symptoms",−26.08
same,Multiple of change,"[7]; gene ENST00000427341, neurons with Alzheimer's disease symptoms",36.49
same,Multiple of change,"[7]; gene ENST00000444130, neurons with Alzheimer's disease symptoms",21.29
same,Multiple of change,"[7]; gene ENST00000496217, neurons with Alzheimer's disease symptoms",50.33
same,Multiple of change,"[7]; gene ENST00000503666, neurons with Alzheimer's disease symptoms",47.83
same,Multiple of change,"[7]; gene ENST00000554445, neurons with Alzheimer's disease symptoms",27.81
same,Multiple of change,"[7]; gene ENST00000556397, neurons with Alzheimer's disease symptoms",30.44
same,Multiple of change,"[7]; gene GATA3, neurons with Alzheimer's disease symptoms",10.76
same,Multiple of change,"[7]; gene ISTI, neurons with Alzheimer's disease symptoms",15.72
same,Multiple of change,"[7]; gene Inc-DCTD-2, neurons with Alzheimer's disease symptoms",9.25
same,Multiple of change,"[7]; gene Inc-RP11-766F14.2.1-1, neurons with Alzheimer's disease symptoms",−34.38
same,Multiple of change,"[7]; gene LOC100131532, neurons with Alzheimer's disease symptoms",47.19
same,Multiple of change,"[7]; gene LOC101060106, neurons with Alzheimer's disease symptoms",22.27
same,Multiple of change,"[7]; gene LOC101928280, neurons with Alzheimer's disease symptoms",−43.14
same,Multiple of change,"[7]; gene LOC101928885, neurons with Alzheimer's disease symptoms",21.40
same,Multiple of change,"[7]; gene MBOATI, neurons with Alzheimer's disease symptoms",−4.65
same,Multiple of change,"[7]; gene NCFIB, neurons with Alzheimer's disease symptoms",34.03
same,Multiple of change,"[7]; gene NT5E, neurons with Alzheimer's disease symptoms",−12.60
same,Multiple of change,"[7]; gene SAP30L-AS1, neurons with Alzheimer's disease symptoms",5.80
same,Multiple of change,"[7]; gene SH3RF3, neurons with Alzheimer's disease symptoms",23.23
same,Multiple of change,"[7]; gene SPANXN3, neurons with Alzheimer's disease symptoms",23.24
same,Multiple of change,"[7]; gene STAPI, neurons with Alzheimer's disease symptoms",−12.79
same,Multiple of change,"[7]; gene TAC4, neurons with Alzheimer's disease symptoms",12.64
same,Multiple of change,"[7]; gene TDRD5, neurons with Alzheimer's disease symptoms",31.41
same,Multiple of change,"[7]; gene THC2717143, neurons with Alzheimer's disease symptoms",29.19
same,Multiple of change,"[7]; gene TMC3-AS1, neurons with Alzheimer's disease symptoms",6.53
same,Multiple of change,"[7]; gene TSKS, neurons with Alzheimer's disease symptoms",8.21
same,Multiple of change,"[7]; gene TTTY14, neurons with Alzheimer's disease symptoms",−22.89
same,Multiple of change,"[7]; gene XLOC 12 011873, neurons with Alzheimer's disease symptoms",6.35
same,Multiple of change,"[7]; gene lnc-AL450307.1-1, neurons with Alzheimer's disease symptoms",−56.05
same,Multiple of change,"[7]; gene lnc-C50rf49-2, neurons with Alzheimer's disease symptoms",34.90
same,Multiple of change,"[7]; gene lnc-CYP3A43-2, neurons with Alzheimer's disease symptoms",−60.06
same,Multiple of change,"[7]; gene lnc-FZDIO-3, neurons with Alzheimer's disease symptoms",39.19
same,Multiple of change,"[7]; gene lnc-ILIRI-1, neurons with Alzheimer's disease symptoms",−39.19
same,Multiple of change,"[7]; gene lnc-KCNC2-4, neurons with Alzheimer's disease symptoms",−8.92
same,Multiple of change,"[7]; gene lnc-KCNG3-1, neurons with Alzheimer's disease symptoms",29.33
same,Multiple of change,"[7]; gene lnc-KHDRBS3-9, neurons with Alzheimer's disease symptoms",27.98
same,Multiple of change,"[7]; gene lnc-P2RY2-3, neurons with Alzheimer's disease symptoms",−105.51
same,Multiple of change,"[7]; gene lnc-PGPEPIL-I, neurons with Alzheimer's disease symptoms",35.28
same,Multiple of change,"[7]; gene lnc-PTGES-I, neurons with Alzheimer's disease symptoms",28.50
same,Multiple of change,"[7]; gene lnc-USP16-7, neurons with Alzheimer's disease symptoms",31.72
same,Multiple of change,"[7]; gene lnc-ZBTB7C-1, neurons with Alzheimer's disease symptoms",−60.03
same,Expression of four long noncoding RNA (lncRNA),[7]; n-BP-treated Ts-21 iPSCs,less than −50 fold
same,"ATP6V0D2 expression level, increase",[7]; [9],30.07 times
same,"IST1 expression level, increase",[7]; [9],15.72 times
same,"ADAMDEC1 expression level, reduced by",[7]; [10],43.55 times
same,"DEC1 expression level, reduced by",[7]; [10],28.35 times
same,"NT5E expression level, reduced by",[7]; [10],12.6 times
same,"STAP1 expression level, reduced by",[7]; [10],12.79 times
same,"Expression levels of other AD-related genes BACE1, PSEN2, APOE3 and APOE4",[8],without significant difference
same,PSEN1 expression (real-time PCR),[8],58.10%±29.28%
same,miR-29b-2-5p expression,[8],12.38 fold
